Some test systems named below: BT-549 breast; DU-145 prostate; HOP-92 NSCLC; HT29 colon; M14 melanoma; MALME-3M melanoma; MDA-N; NCI-H226 lung; NCI/ADR-RES ovarian; SK-MEL-5 melanoma.
What all share (assay): NCI anticancer screen, dose series, 48 h

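How tested: cells in 96-well plates exposed to compound for 48 hours at five concentrations. Definition used: TGI = concentration required for complete inhibition of growth.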 Where only a bound is given, the exact number is not on record here.

For `C/C=C/CC(C(=O)OCC)(N(C)C(=O)OC(C)(C)C)S(=O)(=O)c1ccc(C)cc1` (stereo not drawn), the TGI in the assay on BT-549 breast, in the assay with DU-145 prostate, in the assay on HOP-92 NSCLC, in the assay on HT29 colon, in the assay on M14 melanoma and in the assay with MALME-3M melanoma was greater than 100 µM each time. The TGI in the assay on MDA-N was 48 µM; with NCI-H226 lung, greater than 100 µM; with NCI/ADR-RES ovarian, greater than 100 µM; in the assay with SK-MEL-5 melanoma, greater than 100 µM.

With `O=C(O)c1cc2ccccc2c(Cc2c(O)c(C(=O)O)cc3ccccc23)c1O`, the TGI with BT-549 breast, with DU-145 prostate, with HOP-92 NSCLC, with HT29 colon, in the assay with M14 melanoma and with MALME-3M melanoma was greater than 100 µM each time. The TGI in the assay on MDA-N, with NCI-H226 lung, in the assay on NCI/ADR-RES ovarian and in the assay with SK-MEL-5 melanoma was greater than 100 µM in each case.

Regarding `COc1ccc2[nH]c3cc4c(=O)c5cc(OC)ccc5[nH]c4cc3c(=O)c2c1`, the TGI in the assay on BT-549 breast, in the assay with DU-145 prostate, with HOP-92 NSCLC, with HT29 colon, with M14 melanoma and in the assay on MALME-3M melanoma was greater than 100 µM each time. Also, the TGI with MDA-N, in the assay with NCI-H226 lung, with NCI/ADR-RES ovarian and in the assay with SK-MEL-5 melanoma was greater than 100 µM throughout.

Turning to `CC(=O)Nc1ccc(NC(=O)CC(=O)Nc2ccc(NC(C)=O)cc2)cc1`, the TGI in the assay on BT-549 breast, with DU-145 prostate, in the assay on HOP-92 NSCLC, in the assay on HT29 colon, in the assay on M14 melanoma and in the assay on MALME-3M melanoma was greater than 100 µM in each case. For the same compound, the TGI with MDA-N, with NCI-H226 lung, in the assay on NCI/ADR-RES ovarian and in the assay on SK-MEL-5 melanoma was greater than 100 µM in each case.

Take `CN(C(=O)[C@H](NC(=O)OCc1ccccc1)c1ccccc1)C1CCCCC1N1CCCC1` (stereo partly drawn): the TGI was greater than 100 µM in the assay with BT-549 breast; greater than 100 µM in the assay on DU-145 prostate; greater than 100 µM in the assay with HOP-92 NSCLC; greater than 100 µM in the assay with HT29 colon; 56.4 µM in the assay on M14 melanoma; greater than 100 µM in the assay on MALME-3M melanoma. Also, the TGI was greater than 100 µM with MDA-N, 78 µM with NCI-H226 lung, greater than 100 µM in the assay on NCI/ADR-RES ovarian and 41.2 µM with SK-MEL-5 melanoma.

`O=[N+]([O-])c1cc(Br)cc2cc(Cl)cnc12`: the TGI in the assay with BT-549 breast is greater than 100 µM; in the assay on DU-145 prostate, greater than 100 µM; in the assay with HOP-92 NSCLC, 6.36 µM; with HT29 colon, greater than 100 µM; in the assay on M14 melanoma, greater than 100 µM; in the assay on MALME-3M melanoma, greater than 100 µM. Moreover, the TGI in the assay with MDA-N, in the assay with NCI-H226 lung, with NCI/ADR-RES ovarian and with SK-MEL-5 melanoma was greater than 100 µM throughout.

Regarding `Cc1cccc2c(N)c3cccc(C(=O)NCC[N+](C)(C)Cc4ccc([N+](=O)[O-])n4C)c3nc12`, the TGI in the assay on BT-549 breast is greater than 71.3 µM; in the assay with DU-145 prostate, greater than 75.3 µM; in the assay on HOP-92 NSCLC, greater than 100 µM; in the assay on HT29 colon, 59 µM; in the assay with M14 melanoma, greater than 69.6 µM; with MALME-3M melanoma, 41.3 µM. For the same compound, the TGI in the assay with MDA-N is greater than 81.2 µM; in the assay on NCI-H226 lung, 53.3 µM; in the assay on NCI/ADR-RES ovarian, 98.9 µM; with SK-MEL-5 melanoma it was 59 µM.

Take `Cc1ccc(S(=O)(=O)N(CC(O)COc2ccccc2)c2c(F)c(F)cc(F)c2F)cc1` (stereo not drawn): the TGI was 48.7 µM in the assay on BT-549 breast; greater than 100 µM with DU-145 prostate; 34.2 µM in the assay on HOP-92 NSCLC; 33.4 µM with HT29 colon; 61.5 µM in the assay on M14 melanoma; 64.1 µM with MALME-3M melanoma. For the same compound, the TGI was found to be 35.7 µM with MDA-N, 57.9 µM in the assay with NCI-H226 lung, 42 µM with NCI/ADR-RES ovarian and 30.8 µM with SK-MEL-5 melanoma.

Regarding `Cc1ccsc1/C=N/NC1=NCCN1`, the TGI with BT-549 breast, in the assay with DU-145 prostate, in the assay on HOP-92 NSCLC, with HT29 colon, with M14 melanoma and in the assay on MALME-3M melanoma was greater than 100 µM each time. Besides, the TGI in the assay on MDA-N, with NCI-H226 lung, with NCI/ADR-RES ovarian and with SK-MEL-5 melanoma was greater than 100 µM each time.

On to `O=C(O)c1cc(N=Nc2ccc([N+](=O)[O-])cc2)ccc1O`, for which the TGI was greater than 100 µM in the assay with BT-549 breast; greater than 100 µM with DU-145 prostate; 56.9 µM with HOP-92 NSCLC; greater than 100 µM in the assay on HT29 colon; greater than 100 µM in the assay with M14 melanoma; greater than 100 µM with MALME-3M melanoma. The TGI in the assay on MDA-N was greater than 100 µM; with NCI-H226 lung, 79.4 µM; with NCI/ADR-RES ovarian, greater than 100 µM; with SK-MEL-5 melanoma, greater than 100 µM.

For `Clc1ccc(Nc2ncco2)cc1Cl`, the TGI in the assay on BT-549 breast, in the assay on DU-145 prostate, in the assay on HOP-92 NSCLC, in the assay with HT29 colon, with M14 melanoma and in the assay on MALME-3M melanoma was greater than 10 µM each time. Moreover, the TGI with MDA-N, in the assay with NCI-H226 lung, in the assay with NCI/ADR-RES ovarian and with SK-MEL-5 melanoma was greater than 10 µM in each case.

For `CCO/C(O)=C(/C(=N)N1CCOCC1)C(=O)Nc1cccc(C(F)(F)F)c1`, the TGI in the assay on BT-549 breast, in the assay on DU-145 prostate, with HOP-92 NSCLC, in the assay on HT29 colon, in the assay with M14 melanoma and with MALME-3M melanoma was greater than 100 µM each time. The TGI in the assay with MDA-N, in the assay on NCI-H226 lung and in the assay on NCI/ADR-RES ovarian was greater than 100 µM each time.

On to `COc1ccccc1C1C2=C(COC2=O)Oc2cc3c(cc21)OCO3` (stereo not drawn), for which the TGI is greater than 100 µM in the assay with BT-549 breast; greater than 42.4 µM in the assay on DU-145 prostate; 97.7 µM in the assay with HOP-92 NSCLC; 8.53 µM with HT29 colon; greater than 33.4 µM in the assay with M14 melanoma; greater than 100 µM in the assay on MALME-3M melanoma. In addition, the TGI was 0.763 µM in the assay with MDA-N, greater than 100 µM in the assay with NCI-H226 lung, greater than 39.8 µM in the assay on NCI/ADR-RES ovarian and greater than 100 µM in the assay with SK-MEL-5 melanoma.

For the compound `NC(Cc1ccc(O)cn1)C(=O)NC(C(=O)O)c1ccccc1` (stereo not drawn), the TGI with BT-549 breast, in the assay with DU-145 prostate, with HOP-92 NSCLC, with HT29 colon, with MALME-3M melanoma and with MDA-N was greater than 100 µM throughout. Besides, the TGI in the assay on NCI-H226 lung, in the assay with NCI/ADR-RES ovarian and in the assay on SK-MEL-5 melanoma was greater than 100 µM each time.

Source of the values: PubChem BioAssay (NCI).
